≈ marks a conversion by molar mass, not a printed value.

Assay [1] concerns Bacillus anthracis. Briefly: Antimicrobial activity against Bacillus anthracis Sterne spores by broth microdilution method. It is filed as functional. In general terms: In broth dilution the organism is exposed to a series of concentrations in liquid medium.
The subject of assay [2] is Bacillus anthracis. In words: Antimicrobial activity against Bacillus anthracis Sterne vegetative cells by broth microdilution method. The format is functional.

Regarding `N=C(N)c1ccc(-n2nc3ccc(C(=N)N)cc3n2)cc1`, the MIC in assay [1] and in assay [2] was greater than 14 µg/mL each time.

As for `O=C(Nc1ccc(C2=NCCN2)cc1)c1cc2ccc(C3=NCCN3)cc2o1`, the minimal inhibitory concentration (MIC) in assay [1] and in assay [2] was greater than 18 µg/mL in each case.

Regarding `O=C(Nc1ccc(C2=NCCN2)cc1)c1cc2cc(C3=NCCN3)ccc2o1`, the MIC (as a rule, the smallest concentration in the dilution series that meets the test's criterion for growth inhibition) in assay [1] was 18 µg/mL (≈ 48.2 µM); in assay [2] it was greater than 18 µg/mL.

On to `Cc1cc2nc(/C=C/c3nc4cc(C)c(C)cc4[nH]3)[nH]c2cc1C`, for which the minimal inhibitory concentration (MIC) in assay [1] and in assay [2] was greater than 13 µg/mL throughout.

Consider `N=C(N)c1ccc(-c2cc(-c3ccc(C(=N)N)cc3)on2)cc1`, for which the minimal inhibitory concentration (MIC) in assay [1] and in assay [2] was greater than 15 µg/mL each time.

Regarding `N=C(N)c1ccc2oc(CCc3cc4cc(C(=N)N)ccc4o3)cc2c1`, the MIC in assay [1] and in assay [2] was greater than 17 µg/mL each time.

Turning to `N=C(N)c1ccc(-c2nc3cc(C(=N)N)ccc3[nH]2)cc1`, the minimum inhibitory concentration (MIC) in assay [1] and in assay [2] was greater than 14 µg/mL each time.

As for `N=C(N)c1ccc(Oc2ccc(-c3cc4ccc(C(=N)N)cc4[nH]3)cc2)cc1`, the MIC in assay [1] and in assay [2] was 4 µg/mL (≈ 10.8 µM) in each case.

As for `C(=C\c1cc2cc(C3=NCCN3)ccc2o1)/c1cc2cc(C3=NCCN3)ccc2[nH]1`, the MIC was 19 µg/mL (≈ 48 µM) in assay [1] and greater than 19 µg/mL in assay [2].

In the case of `N=C(N)c1ccc(-n2cc3cc(C(=N)N)ccc3n2)cc1`, the MIC in assay [1] and in assay [2] was greater than 14 µg/mL in each case.

`N=C(N)c1ccc2oc(CCc3cc4ccc(C(=N)N)cc4[nH]3)cc2c1`: the MIC in assay [1] and in assay [2] was 8.4 µg/mL (≈ 24.3 µM) each time.

Take `C(/C=C/c1cc2cc(C3=NCCN3)ccc2o1)=C\c1ccc(C2=NCCN2)cc1`: the MIC in assay [1] and in assay [2] was 18.2 µg/mL (≈ 47.6 µM) throughout.

For `c1cc(-c2[nH]c3cc(C4=NCCN4)ccc3c2-c2cc3ccc(C4=NCCN4)cc3[nH]2)ccc1C1=NCCN1`, the MIC in assay [1] and in assay [2] was 24.9 µg/mL (≈ 48.6 µM) each time.

`Cc1c(/C=C/c2oc3ccc(C(=N)N)cc3c2C)oc2cc(C(=N)N)ccc12`: the MIC in assay [1] and in assay [2] was greater than 18 µg/mL throughout.

On to `N=C(N)c1ccc2oc(/C=C/C=C/C=C/c3cc4cc(C(=N)N)ccc4o3)cc2c1`, for which the MIC stood at 2.3 µg/mL (≈ 5.8 µM) in assay [1] and 9.4 µg/mL (≈ 23.7 µM) in assay [2].

With `N=C(N)c1ccc(-c2[nH]c3cc(C(=N)N)ccc3c2-c2ccccc2)cc1`, the MIC in assay [1] was determined as 9 µg/mL (≈ 25.5 µM); in assay [2], 17 µg/mL (≈ 48.1 µM).

In the case of `N=C(N)c1ccc2oc(/C=C/c3cc4cc(C(=N)N)ccc4s3)cc2c1`, the MIC was 8.7 µg/mL (≈ 24.1 µM) in assay [1] and 17 µg/mL (≈ 47.2 µM) in assay [2].

As for `Cc1c(/C=C/c2cc3cc(C(=N)N)ccc3o2)oc2cc(C(=N)N)ccc12`, the MIC in assay [1] and in assay [2] was greater than 17 µg/mL each time.

As to `C(=C\c1cc2cc(C3=NCCN3)ccc2o1)/c1cc2cc(C3=NCCN3)ccc2o1`, the MIC in assay [1] and in assay [2] was greater than 19 µg/mL each time.

As to `N=C(N)c1ccc2cc(/C=C/c3cc4ccc(C(=N)N)cc4o3)[nH]c2c1`, the MIC is 2.1 µg/mL (≈ 6.12 µM) in assay [1] and 4.2 µg/mL (≈ 12.2 µM) in assay [2].

For `N=C(N)c1ccc2oc(/C=C/C=C/c3cc4cc(C(=N)N)ccc4o3)cc2c1`, the results for the minimal inhibitory concentration (MIC) in assay [1] and in assay [2] were 2.2 µg/mL (≈ 5.94 µM) and 18 µg/mL (≈ 48.6 µM), respectively.

On to `N=C(N)c1ccc(-c2ccc(-c3ccc(C(=N)N)cc3)s2)cc1`, for which the MIC in assay [1] was 16 µg/mL (≈ 49.9 µM); in assay [2], greater than 16 µg/mL.

On to `N=C(N)c1ccc2oc(/C=C/c3cc4ccc(C(=N)N)cc4o3)cc2c1`, for which the MIC in assay [1] and in assay [2] was greater than 17 µg/mL throughout.

For the molecule `C(=C\c1cc2cc(C3=NCCN3)ccc2o1)/c1ccc(C2=NCCN2)cc1`, the MIC in assay [1] and in assay [2] was 17.2 µg/mL (≈ 48.3 µM) throughout.

Turning to `C(=C\c1cc2ccc(C3=NCCN3)cc2o1)/c1cc2cc(C3=NCCN3)ccc2[nH]1`, the MIC in assay [1] was 19 µg/mL (≈ 48 µM); in assay [2], greater than 19 µg/mL.

Regarding `Cc1cc(N)c2cc(NC(=O)Nc3ccc4nc(C)cc(N)c4c3)ccc2n1` [AMINOQUINURIDE], the minimal inhibitory concentration (MIC) in assay [1] stood at 4.5 µg/mL (≈ 12.1 µM); in assay [2] it was 17.8 µg/mL (≈ 47.8 µM).

As to `C(=C\c1cc2ccc(C3=NCCN3)cc2[nH]1)/c1ccc(Oc2ccc(C3=NCCN3)cc2)cc1`, the MIC in assay [1] and in assay [2] was 2.6 µg/mL (≈ 5.81 µM) each time.

Take `C(=C\c1cc2ccc(C3=NCCN3)cc2[nH]1)/c1ccc(C2=NCCN2)cc1`: the minimum inhibitory concentration (MIC) was 8.6 µg/mL (≈ 24.2 µM) in assay [1] and greater than 17 µg/mL in assay [2].

`N=C(N)c1ccc(-c2[nH]c3cc(C(=N)N)ccc3c2N)cc1`: the minimum inhibitory concentration (MIC) in assay [1] and in assay [2] was greater than 15 µg/mL each time.

For the molecule `N=C(N)c1ccc(/C=C/c2cc3ccc(C(=N)N)cc3[nH]2)cc1`, the results for the MIC in assay [1] and in assay [2] were 7.5 µg/mL (≈ 24.7 µM) and 15 µg/mL (≈ 49.4 µM), respectively.

Turning to `Nc1ccc(C2=Cc3ccc(N)cc3S2(=O)=O)cc1`, the MIC in assay [1] and in assay [2] was greater than 11 µg/mL in each case.

On to `C(=C\c1cc2cc(C3=NCCN3)ccc2[nH]1)/c1ccc(C2=NCCN2)cc1`, for which the MIC in assay [1] and in assay [2] was greater than 17 µg/mL in each case.

With `C(=C\c1cc2ccc(C3=NCCN3)cc2o1)/c1cc2ccc(C3=NCCN3)cc2o1`, the MIC in assay [1] and in assay [2] was 19 µg/mL (≈ 47.9 µM) in each case.

Regarding `c1cc(-c2cc3ccc(C4=NCCN4)cc3s2)ccc1C1=NCCN1`, the MIC in assay [1] and in assay [2] was greater than 17 µg/mL throughout.

For the molecule `C(/C=C/c1cc2cc(C3=NCCN3)ccc2o1)=C\c1cc2cc(C3=NCCN3)ccc2o1`, the MIC in assay [1] worked out at 9.9 µg/mL (≈ 23.4 µM); in assay [2], 19.8 µg/mL (≈ 46.9 µM).

For `N=C(N)c1ccc2cc(C(=N)N)[nH]c2c1`, the MIC in assay [1] and in assay [2] was greater than 11 µg/mL each time.

Regarding `C(=C\c1cc2ccc(C3=NCCN3)cc2o1)/c1cc2ccc(C3=NCCN3)cc2[nH]1`, the MIC in assay [1] was determined as 4.7 µg/mL (≈ 11.9 µM); in assay [2], 19 µg/mL (≈ 48 µM).

Regarding `C(=C\c1cc2cc(C3=NCCN3)ccc2s1)/c1ccc(C2=NCCN2)cc1`, the MIC in assay [1] and in assay [2] was 17.8 µg/mL (≈ 47.8 µM) each time.

With `N=C(N)c1ccc2[nH]c(/C=C/c3nc4cc(C(=N)N)ccc4[nH]3)nc2c1`, the MIC in assay [1] and in assay [2] was greater than 17 µg/mL each time.

Regarding `OCCn1c(/C=C/c2nc3ccccc3[nH]2)nc2ccccc21`, the minimal inhibitory concentration (MIC) in assay [1] and in assay [2] was greater than 12 µg/mL each time.

In the case of `N=C(N)c1ccc(/C=C/C=C/c2cc3cc(C(=N)N)ccc3o2)cc1`, the MIC in assay [1] is 8.1 µg/mL (≈ 24.5 µM); in assay [2], 16.1 µg/mL (≈ 48.7 µM).

As for `N=C(N)c1ccc(NC(=O)c2cc3ccc(C(=N)N)cc3o2)cc1`, the MIC in assay [1] and in assay [2] was greater than 16 µg/mL throughout.

For the molecule `C(=C\c1nc2ccccc2[nH]1)/c1nc2ccccc2[nH]1`, the MIC in assay [1] and in assay [2] was greater than 10 µg/mL in each case.

Consider `c1cc2cc(-c3cc4ccc(C5=NCCN5)cc4[nH]3)[nH]c2cc1C1=NCCN1`, for which the MIC in assay [1] was 0.6 µg/mL (≈ 1.63 µM); in assay [2], 1.1 µg/mL (≈ 2.99 µM).

On to `c1cc(-c2cc3cc(C4=NCCN4)ccc3s2)ccc1C1=NCCN1`, for which the MIC in assay [1] and in assay [2] was greater than 17 µg/mL in each case.

In the case of `N=C(N)c1ccc2[nH]c(/C=C/c3cc4ccc(C(=N)N)cc4o3)cc2c1`, the values for the minimum inhibitory concentration (MIC) in assay [1] and in assay [2] were 8 µg/mL (≈ 23.3 µM) and greater than 17 µg/mL, respectively.

`N=C(N)c1ccc(/C=C/c2cc3cc(C(=N)N)ccc3o2)cc1`: the MIC in assay [1] and in assay [2] was greater than 15 µg/mL each time.

Take `C(=C\c1cc2ccc(C3=NCCN3)cc2[nH]1)/c1ccc2cc(C3=NCCN3)[nH]c2c1`: the MIC turned out to be 9.3 µg/mL (≈ 23.6 µM) in assay [1] and 18.7 µg/mL (≈ 47.4 µM) in assay [2].

In the case of `N=C(N)c1ccc(-c2cc3cc(C(=N)N)ccc3s2)cc1`, the minimum inhibitory concentration (MIC) in assay [1] and in assay [2] was greater than 15 µg/mL throughout.

Consider `N=C(N)Nc1ccc(-c2cc3cc(NC(=N)N)ccc3s2)cc1`, for which the MIC is 15.9 µg/mL (≈ 49 µM) in assay [1] and greater than 16 µg/mL in assay [2].

These data come from ChEMBL document CHEMBL1687745 (Antimicrob Agents Chemother, 2009).
